The target in assay [1] is T1, ERK3 (Homo sapiens, UniProt Q16659).
T1 construct: gene MAPK6
The assay is described as follows: biochemical. On the set-up: KINOMEscan scanMAX competition binding, DNA-tagged kinases, qPCR read-out, percent control at 300 nM.

In assay [2] the target is ROS1 (Homo sapiens, UniProt P08922). Description: biochemical. On the set-up: KINOMEscan scanMAX competition binding, DNA-tagged kinases, qPCR read-out, percent control at 300 nM.
In assay [3] the target is PRKCQ (Homo sapiens, UniProt Q04759). Description: biochemical. On the set-up: KINOMEscan scanMAX competition binding, DNA-tagged kinases, qPCR read-out, percent control at 300 nM.
In assay [4] the target is T2, RIPK4 (Homo sapiens, UniProt P57078).
T2 sequence (P57078 1-832): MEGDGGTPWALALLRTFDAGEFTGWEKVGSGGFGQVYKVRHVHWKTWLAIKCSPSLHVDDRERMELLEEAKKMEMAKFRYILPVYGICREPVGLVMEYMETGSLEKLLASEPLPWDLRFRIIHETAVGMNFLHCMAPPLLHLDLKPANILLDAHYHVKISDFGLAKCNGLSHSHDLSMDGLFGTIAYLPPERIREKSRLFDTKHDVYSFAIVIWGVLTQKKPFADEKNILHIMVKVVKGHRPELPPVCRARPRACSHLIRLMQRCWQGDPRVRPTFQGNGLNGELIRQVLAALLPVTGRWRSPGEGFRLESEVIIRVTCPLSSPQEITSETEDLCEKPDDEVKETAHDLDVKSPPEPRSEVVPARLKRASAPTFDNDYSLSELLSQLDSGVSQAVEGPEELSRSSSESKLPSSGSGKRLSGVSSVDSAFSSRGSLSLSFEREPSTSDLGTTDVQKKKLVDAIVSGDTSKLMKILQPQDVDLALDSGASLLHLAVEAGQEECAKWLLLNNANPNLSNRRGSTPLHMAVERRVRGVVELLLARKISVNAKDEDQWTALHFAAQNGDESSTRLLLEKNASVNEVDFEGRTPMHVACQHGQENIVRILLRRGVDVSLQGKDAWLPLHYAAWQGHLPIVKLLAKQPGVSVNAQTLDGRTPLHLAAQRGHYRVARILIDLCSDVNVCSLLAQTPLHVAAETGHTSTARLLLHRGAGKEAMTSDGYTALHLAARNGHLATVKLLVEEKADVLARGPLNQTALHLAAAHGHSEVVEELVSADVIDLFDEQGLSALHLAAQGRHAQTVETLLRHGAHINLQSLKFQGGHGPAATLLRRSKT
The assay is described as follows: biochemical. On the set-up: KINOMEscan scanMAX competition binding, DNA-tagged kinases, qPCR read-out, percent control at 300 nM.

The target of assay [5] is ERN1 (Homo sapiens, UniProt O75460). Description: biochemical. On the set-up: KINOMEscan scanMAX competition binding, DNA-tagged kinases, qPCR read-out, percent control at 300 nM.
Assay [6] concerns the target T3, TXK (Homo sapiens, UniProt P42681).
T3 sequence (P42681 1-527): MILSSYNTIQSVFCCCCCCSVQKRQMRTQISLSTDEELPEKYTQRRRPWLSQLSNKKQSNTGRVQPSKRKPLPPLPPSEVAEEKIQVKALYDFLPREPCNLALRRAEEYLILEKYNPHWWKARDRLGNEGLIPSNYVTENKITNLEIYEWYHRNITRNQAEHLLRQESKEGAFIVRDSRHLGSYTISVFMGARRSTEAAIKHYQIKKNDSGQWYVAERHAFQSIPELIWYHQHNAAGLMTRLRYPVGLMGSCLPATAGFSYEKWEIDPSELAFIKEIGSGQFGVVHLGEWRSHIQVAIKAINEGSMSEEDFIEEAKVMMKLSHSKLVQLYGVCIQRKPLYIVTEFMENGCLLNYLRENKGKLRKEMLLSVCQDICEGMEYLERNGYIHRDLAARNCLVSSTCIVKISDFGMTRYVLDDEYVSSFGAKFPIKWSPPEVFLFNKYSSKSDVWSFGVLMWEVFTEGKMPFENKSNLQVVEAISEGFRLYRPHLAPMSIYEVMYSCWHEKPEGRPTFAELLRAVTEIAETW
Description: Z'-Lyte kinase inhibition assay. The format is biochemical. On the set-up: purchased Thermo Fisher Scientific (Invitrogen Z'-Lyte service). The settings on record: 60 min preincubation. Here is the method: In all the assays, each test compound was preincubated with peptide/kinase mixture or kinase/antibody mixture for 60 min at room temperature before adding the ATP solution or AlexaFluor labeled Tracer to initiate the 60-min incubation of the reactants.

Assay [7] addresses T4, PIP5K2C (Homo sapiens, UniProt Q8TBX8).
T4 construct: gene PIP4K2C
T4 sequence (Q8TBX8 1-421): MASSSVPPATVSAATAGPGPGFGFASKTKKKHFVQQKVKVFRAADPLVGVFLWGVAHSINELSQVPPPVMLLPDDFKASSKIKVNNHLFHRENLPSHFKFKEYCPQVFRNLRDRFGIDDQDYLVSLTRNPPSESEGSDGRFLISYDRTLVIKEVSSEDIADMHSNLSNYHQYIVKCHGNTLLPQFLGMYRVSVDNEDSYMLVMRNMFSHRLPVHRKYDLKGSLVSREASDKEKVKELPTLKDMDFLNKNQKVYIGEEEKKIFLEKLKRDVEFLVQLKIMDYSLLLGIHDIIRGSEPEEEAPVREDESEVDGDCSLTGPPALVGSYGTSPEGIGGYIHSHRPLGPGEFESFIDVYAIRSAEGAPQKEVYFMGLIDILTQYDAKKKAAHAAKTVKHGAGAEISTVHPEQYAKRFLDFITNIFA
Description: biochemical. On the set-up: KINOMEscan scanMAX competition binding, DNA-tagged kinases, qPCR read-out, percent control at 300 nM.

Assay [8] has as its target NEK7 (Homo sapiens, UniProt Q8TDX7). Description: biochemical. On the set-up: KINOMEscan scanMAX competition binding, DNA-tagged kinases, qPCR read-out, percent control at 300 nM.
Assay [9] has as its target MAP3K1 (Homo sapiens, UniProt Q13233). The assay is described as follows: biochemical. On the set-up: KINOMEscan scanMAX competition binding, DNA-tagged kinases, qPCR read-out, percent control at 300 nM.
Assay [10] deals with BRAF (Homo sapiens, UniProt P15056). Description: biochemical. On the set-up: KINOMEscan scanMAX competition binding, DNA-tagged kinases, qPCR read-out, percent control at 300 nM.
The target of assay [11] is T5, PFCDPK1(P.falciparum) (Plasmodium falciparum, UniProt P62344).
T5 construct: gene CDPK1
Description: biochemical.

Setting [12] is: read-out: Percent control / Tirabrutinib.
Where [13] appears, read: read-out: Percent control / Acalabrutinib.
The mark [14] stands for this setting: read-out: Percent control / Ibrutinib.
[15] abbreviates: read-out: Percent control / Zanubrutinib.

Like-named read-outs stand apart in the source and are kept apart here.

BRAF, sequence (P15056 whole entry): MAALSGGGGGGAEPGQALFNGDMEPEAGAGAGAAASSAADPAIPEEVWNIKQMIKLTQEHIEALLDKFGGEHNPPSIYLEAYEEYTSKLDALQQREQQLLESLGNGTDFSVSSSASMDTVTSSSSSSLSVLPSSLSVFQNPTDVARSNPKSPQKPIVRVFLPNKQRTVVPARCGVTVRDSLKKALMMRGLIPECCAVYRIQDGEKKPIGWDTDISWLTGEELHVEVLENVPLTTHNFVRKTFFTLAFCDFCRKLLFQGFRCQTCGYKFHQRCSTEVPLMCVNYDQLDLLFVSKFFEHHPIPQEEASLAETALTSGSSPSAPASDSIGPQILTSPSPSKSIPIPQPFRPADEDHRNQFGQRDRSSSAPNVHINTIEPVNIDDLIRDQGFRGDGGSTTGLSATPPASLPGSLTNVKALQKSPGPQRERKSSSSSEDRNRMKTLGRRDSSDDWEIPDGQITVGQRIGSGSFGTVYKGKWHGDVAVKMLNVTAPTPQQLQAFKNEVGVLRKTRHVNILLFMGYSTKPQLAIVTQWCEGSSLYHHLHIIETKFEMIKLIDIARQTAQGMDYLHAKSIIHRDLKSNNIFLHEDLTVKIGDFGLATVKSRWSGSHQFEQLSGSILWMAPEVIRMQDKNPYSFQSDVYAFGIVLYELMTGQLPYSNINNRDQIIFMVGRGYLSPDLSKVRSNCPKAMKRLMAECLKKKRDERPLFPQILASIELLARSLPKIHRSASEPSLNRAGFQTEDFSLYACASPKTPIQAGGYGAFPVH
ROS1, sequence (P08922 whole entry): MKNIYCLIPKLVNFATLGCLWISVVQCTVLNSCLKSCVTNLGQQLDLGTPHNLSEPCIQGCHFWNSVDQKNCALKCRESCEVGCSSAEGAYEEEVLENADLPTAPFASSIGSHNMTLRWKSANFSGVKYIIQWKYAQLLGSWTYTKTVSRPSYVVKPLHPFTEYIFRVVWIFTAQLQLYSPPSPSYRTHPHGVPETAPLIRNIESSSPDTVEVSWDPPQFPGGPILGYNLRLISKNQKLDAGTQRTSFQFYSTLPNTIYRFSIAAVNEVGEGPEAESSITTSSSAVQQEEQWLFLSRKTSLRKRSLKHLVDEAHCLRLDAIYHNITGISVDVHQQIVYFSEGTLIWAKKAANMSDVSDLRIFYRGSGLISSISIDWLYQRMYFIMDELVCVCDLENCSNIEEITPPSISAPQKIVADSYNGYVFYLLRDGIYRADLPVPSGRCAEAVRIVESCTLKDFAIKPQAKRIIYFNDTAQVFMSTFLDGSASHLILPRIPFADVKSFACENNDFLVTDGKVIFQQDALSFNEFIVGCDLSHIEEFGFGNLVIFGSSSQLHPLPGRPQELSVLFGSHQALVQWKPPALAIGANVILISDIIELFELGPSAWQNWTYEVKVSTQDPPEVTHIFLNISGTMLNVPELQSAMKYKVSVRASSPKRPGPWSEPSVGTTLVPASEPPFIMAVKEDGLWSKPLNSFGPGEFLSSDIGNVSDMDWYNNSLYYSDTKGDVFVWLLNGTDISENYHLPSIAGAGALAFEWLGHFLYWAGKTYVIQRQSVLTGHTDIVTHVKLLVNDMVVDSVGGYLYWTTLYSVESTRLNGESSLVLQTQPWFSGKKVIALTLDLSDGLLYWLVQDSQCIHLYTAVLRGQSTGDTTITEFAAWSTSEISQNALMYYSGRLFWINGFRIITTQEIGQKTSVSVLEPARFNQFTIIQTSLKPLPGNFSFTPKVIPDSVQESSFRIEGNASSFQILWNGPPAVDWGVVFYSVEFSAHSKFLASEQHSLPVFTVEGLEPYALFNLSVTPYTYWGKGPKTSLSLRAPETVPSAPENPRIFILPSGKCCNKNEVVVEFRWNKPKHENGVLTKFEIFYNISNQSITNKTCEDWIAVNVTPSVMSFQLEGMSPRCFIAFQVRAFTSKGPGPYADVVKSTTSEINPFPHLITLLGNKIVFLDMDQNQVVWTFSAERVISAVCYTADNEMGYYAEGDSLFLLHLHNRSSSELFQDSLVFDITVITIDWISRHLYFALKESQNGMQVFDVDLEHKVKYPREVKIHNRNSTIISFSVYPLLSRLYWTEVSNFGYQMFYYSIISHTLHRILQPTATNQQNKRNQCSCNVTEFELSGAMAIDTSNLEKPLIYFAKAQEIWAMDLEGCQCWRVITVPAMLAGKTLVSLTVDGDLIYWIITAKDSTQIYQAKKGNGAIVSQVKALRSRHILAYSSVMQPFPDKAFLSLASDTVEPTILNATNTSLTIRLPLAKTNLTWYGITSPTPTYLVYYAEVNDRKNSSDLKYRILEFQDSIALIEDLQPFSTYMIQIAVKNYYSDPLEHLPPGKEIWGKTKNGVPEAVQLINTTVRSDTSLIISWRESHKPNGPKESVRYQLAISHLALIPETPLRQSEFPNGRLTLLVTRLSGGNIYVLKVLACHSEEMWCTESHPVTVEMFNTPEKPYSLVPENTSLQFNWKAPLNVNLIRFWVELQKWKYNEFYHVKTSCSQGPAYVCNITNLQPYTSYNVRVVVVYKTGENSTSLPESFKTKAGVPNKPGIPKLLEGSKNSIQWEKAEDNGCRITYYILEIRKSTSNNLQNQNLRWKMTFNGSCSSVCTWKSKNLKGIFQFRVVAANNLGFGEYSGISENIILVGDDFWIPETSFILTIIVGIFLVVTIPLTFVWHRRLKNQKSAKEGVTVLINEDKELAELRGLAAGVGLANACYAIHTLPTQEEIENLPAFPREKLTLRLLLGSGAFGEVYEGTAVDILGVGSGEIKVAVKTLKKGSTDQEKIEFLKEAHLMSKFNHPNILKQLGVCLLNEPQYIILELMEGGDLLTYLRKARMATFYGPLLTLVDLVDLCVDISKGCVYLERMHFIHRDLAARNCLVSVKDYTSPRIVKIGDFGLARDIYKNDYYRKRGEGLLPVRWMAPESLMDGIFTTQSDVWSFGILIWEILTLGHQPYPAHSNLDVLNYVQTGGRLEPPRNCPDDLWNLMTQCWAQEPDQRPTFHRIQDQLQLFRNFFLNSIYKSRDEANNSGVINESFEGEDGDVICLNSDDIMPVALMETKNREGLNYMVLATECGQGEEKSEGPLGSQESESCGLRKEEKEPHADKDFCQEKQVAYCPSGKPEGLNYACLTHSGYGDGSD
T1 sequence (Q16659 whole entry): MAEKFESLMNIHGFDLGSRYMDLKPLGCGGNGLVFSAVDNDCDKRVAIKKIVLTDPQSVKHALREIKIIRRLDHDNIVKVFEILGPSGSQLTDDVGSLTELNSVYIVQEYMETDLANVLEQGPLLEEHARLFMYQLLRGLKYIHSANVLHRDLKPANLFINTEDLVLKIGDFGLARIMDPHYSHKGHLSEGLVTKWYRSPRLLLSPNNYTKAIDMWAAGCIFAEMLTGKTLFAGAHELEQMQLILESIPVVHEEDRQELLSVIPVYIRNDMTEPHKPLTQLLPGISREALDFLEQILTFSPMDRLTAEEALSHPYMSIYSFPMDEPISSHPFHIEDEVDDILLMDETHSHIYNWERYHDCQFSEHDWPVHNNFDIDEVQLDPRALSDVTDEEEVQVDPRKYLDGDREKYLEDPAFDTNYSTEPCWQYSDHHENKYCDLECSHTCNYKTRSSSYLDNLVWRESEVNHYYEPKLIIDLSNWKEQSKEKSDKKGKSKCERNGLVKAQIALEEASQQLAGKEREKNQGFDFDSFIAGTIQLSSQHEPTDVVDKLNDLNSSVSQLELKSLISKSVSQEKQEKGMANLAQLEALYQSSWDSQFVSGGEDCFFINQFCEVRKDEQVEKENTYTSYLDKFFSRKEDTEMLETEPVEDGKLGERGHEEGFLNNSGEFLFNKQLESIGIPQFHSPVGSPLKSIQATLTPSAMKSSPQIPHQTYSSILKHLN
NEK7, sequence (Q8TDX7 whole entry): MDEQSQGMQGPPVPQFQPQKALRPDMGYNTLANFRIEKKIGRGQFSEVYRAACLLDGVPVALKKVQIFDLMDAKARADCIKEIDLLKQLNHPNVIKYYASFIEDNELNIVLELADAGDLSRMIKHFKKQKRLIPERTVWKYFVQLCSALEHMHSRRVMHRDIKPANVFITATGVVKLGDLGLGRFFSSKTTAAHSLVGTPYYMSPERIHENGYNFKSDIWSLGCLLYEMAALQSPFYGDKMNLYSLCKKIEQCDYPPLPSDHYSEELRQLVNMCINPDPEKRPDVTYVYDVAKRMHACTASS
PRKCQ, sequence (Q04759 whole entry): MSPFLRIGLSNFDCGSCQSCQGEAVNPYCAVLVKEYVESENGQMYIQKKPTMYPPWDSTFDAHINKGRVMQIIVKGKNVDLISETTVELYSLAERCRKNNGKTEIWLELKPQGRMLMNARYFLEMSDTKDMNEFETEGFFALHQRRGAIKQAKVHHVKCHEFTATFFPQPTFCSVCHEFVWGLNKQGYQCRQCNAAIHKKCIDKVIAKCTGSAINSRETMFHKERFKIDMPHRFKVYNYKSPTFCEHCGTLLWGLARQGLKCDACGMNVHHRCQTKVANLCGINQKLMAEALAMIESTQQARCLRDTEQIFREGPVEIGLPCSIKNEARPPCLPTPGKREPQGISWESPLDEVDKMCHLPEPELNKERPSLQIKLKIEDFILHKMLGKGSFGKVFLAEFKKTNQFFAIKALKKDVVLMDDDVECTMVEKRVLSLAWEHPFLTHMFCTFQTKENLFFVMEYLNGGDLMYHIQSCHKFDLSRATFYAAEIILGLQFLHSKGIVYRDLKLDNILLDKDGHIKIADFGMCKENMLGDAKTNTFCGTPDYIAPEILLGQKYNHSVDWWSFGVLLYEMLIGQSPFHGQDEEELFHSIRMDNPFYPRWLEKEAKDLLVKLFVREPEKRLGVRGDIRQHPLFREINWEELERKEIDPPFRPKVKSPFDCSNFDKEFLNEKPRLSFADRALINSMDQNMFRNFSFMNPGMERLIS

As to `CC#CC(=O)N1CC[C@@H](n2c(=O)n(-c3ccc(Oc4ccccc4)cc3)c3c(N)ncnc32)C1` [Tirabrutinib], the remaining binding at 0.3 µM was 90% in assay [1] (setting [12]); 94% in assay [2] (setting [12]); 93% in assay [3] (setting [12]); 70% in assay [4] (setting [12]); 87% in assay [5] (setting [12]). Also, the midpoint of inhibition in assay [6], the IC50, lay at 0.0545 µM.
Regarding `CC#CC(=O)N1CCC[C@H]1c1nc(-c2ccc(C(=O)Nc3ccccn3)cc2)c2c(N)nccn12` [Acalabrutinib], the remaining binding at 0.3 µM in [7] (setting [13]) was found to be 90%; in assay [1] (setting [13]), 91%; in [2] (setting [13]), 86%; in assay [8] (setting [13]), 76%; in assay [3] (setting [13]), 84%; in [4] (setting [13]), 85%. Also, the remaining binding at 0.3 µM in [9] (setting [13]) was 96%; in [5] (setting [13]), 96%; in assay [10] (setting [13]) it was 85%. The same molecule gave an IC50 in [6] of 0.273 µM. The remaining activity at 0.3 µM in assay [11] (setting [13]) amounted to 23%.
As to `C=CC(=O)N1CCC[C@@H](n2nc(-c3ccc(Oc4ccccc4)cc3)c3c(N)ncnc32)C1` [Ibrutinib], the remaining binding at 0.3 µM in [7] (setting [14]) stood at 81%; in [8] (setting [14]), 97%; in assay [4] (setting [14]) it was 76%; in assay [9] (setting [14]), 86%; in [5] (setting [14]), 89%; in [10] (setting [14]), 97%. Further, the remaining activity at 0.3 µM in assay [11] (setting [14]) turned out to be 0.9%.
For `C=CC(=O)N1CCC([C@@H]2CCNc3c(C(N)=O)c(-c4ccc(Oc5ccccc5)cc4)nn32)CC1` [Zanubrutinib], the remaining binding at 0.3 µM in assay [7] (setting [15]) came to 92%; in assay [1] (setting [15]) it was 98%; in [2] (setting [15]) it was 100%; in [8] (setting [15]), 91%; in assay [3] (setting [15]), 87%; in assay [4] (setting [15]), 91%. The remaining binding at 0.3 µM is 84% in [9] (setting [15]), 100% in assay [5] (setting [15]) and 97% in [10] (setting [15]). The molecule further gave a 50% inhibitory concentration (IC50) in assay [6] of 0.00459 µM. Further, in [11] (setting [15]), the remaining activity at 0.3 µM was determined as 7.4%.

Source of the values: paper PMC10004634 (PLOS ONE, 2023).
